7 molecules from patent publication US12398142B2, “Abelson non-tyrosine kinase compounds for the treatment of neurodegenerative diseases” (Emory University, priority 2019, dated 2025) can be followed below.

Read-outs that look alike come from different tables or passages of the source. A value given as a limit tells only on which side of the number the result lay.

For one series, the target named is ABL1 (Homo sapiens (Human), UniProt P00519). Nature of the series: Kinase profiling, ABL1 10-dose IC50. It counts as biochemical.
In the next series the target is CYP2D6 (Homo sapiens (Human), UniProt P10635). Nature of the series: CYP2D6 IC50. It counts as in vitro ADME. The note with it: unit given as mM.
In the next series the target is CYP3A4 (Homo sapiens (Human), UniProt P08684). Nature of the series: CYP3A4 IC50. Particulars: unit given as mM. It counts as in vitro ADME.
In the next series the target is hERG (Homo sapiens (Human), UniProt Q12809). Nature of the series: hERG profiling, fluorescent Tracer binding competition (FP). The note with it: for SI / selectivity ratio at 4 h: human, pH 7.5. The method, then:
Compounds were prepared as 10 mM DMSO stock and stored at −80° C.
Assay Format: The assay is based on the competition of fluorescently labeled Tracer binding to the membrane preparation containing hERG.
Assay conditions: 1 nM Predictor™ hERG Tracer Red; 1X Predictor™ hERG Membrane
Assay Procedure: Compounds in DMSO were added into the Membrane mixture by using Acoustic Technology. Tracer was added, and gentled mixed in the dark. FP was measured after 4 hours incubation at room temperature and mP calculated.
On the technique in general: Block of hERG is tested as a sign of cardiac risk.

[1] abbreviates: 10 μM ATP, first run (TK3-141, TK3-144, CD-1-002), read-out: Compound IC50 ABL1 Data 1.
Where [2] appears, read: 10 μM ATP, first run, average of duplicates, read-out: Compound IC50 ABL1 Avg.
[3] abbreviates: 10 μM ATP, first run, read-out: Compound IC50 ABL1 Data 2.
Where [4] appears, read: summary table, read-out: Abl1 IC50.
Where [5] appears, read: IC50 of Tracer Binding hERG AVERAGE, first run, average of duplicates.
Setting [6] is: IC50 of Tracer Binding hERG Data 1, first run, 4 hours incubation.
The mark [7] stands for this setting: IC50 of Tracer Binding hERG Data 2, first run.
Setting [8] is: hERG IC50, summary table, unit given as mM.
Where [9] appears, read: 10 μM ATP, second run (CD-1-051, ZD-3-167, CD-1-067), read-out: Compound IC50 ABL1 Data 1.
The mark [10] stands for this setting: 10 μM ATP, second run, average of duplicates, read-out: Compound IC50 ABL1 Avg.
Where [11] appears, read: 10 μM ATP, second run, read-out: Compound IC50 ABL1 Data 2.
Setting [12] is: Average hERG (IC50), second run, average.
Where [13] appears, read: IC50 of Tracer Binding hERG Data 1, second run.
[14] abbreviates: IC50 of Tracer Binding hERG Data 2, second run.

Chain of ABL1 (P00519 whole entry): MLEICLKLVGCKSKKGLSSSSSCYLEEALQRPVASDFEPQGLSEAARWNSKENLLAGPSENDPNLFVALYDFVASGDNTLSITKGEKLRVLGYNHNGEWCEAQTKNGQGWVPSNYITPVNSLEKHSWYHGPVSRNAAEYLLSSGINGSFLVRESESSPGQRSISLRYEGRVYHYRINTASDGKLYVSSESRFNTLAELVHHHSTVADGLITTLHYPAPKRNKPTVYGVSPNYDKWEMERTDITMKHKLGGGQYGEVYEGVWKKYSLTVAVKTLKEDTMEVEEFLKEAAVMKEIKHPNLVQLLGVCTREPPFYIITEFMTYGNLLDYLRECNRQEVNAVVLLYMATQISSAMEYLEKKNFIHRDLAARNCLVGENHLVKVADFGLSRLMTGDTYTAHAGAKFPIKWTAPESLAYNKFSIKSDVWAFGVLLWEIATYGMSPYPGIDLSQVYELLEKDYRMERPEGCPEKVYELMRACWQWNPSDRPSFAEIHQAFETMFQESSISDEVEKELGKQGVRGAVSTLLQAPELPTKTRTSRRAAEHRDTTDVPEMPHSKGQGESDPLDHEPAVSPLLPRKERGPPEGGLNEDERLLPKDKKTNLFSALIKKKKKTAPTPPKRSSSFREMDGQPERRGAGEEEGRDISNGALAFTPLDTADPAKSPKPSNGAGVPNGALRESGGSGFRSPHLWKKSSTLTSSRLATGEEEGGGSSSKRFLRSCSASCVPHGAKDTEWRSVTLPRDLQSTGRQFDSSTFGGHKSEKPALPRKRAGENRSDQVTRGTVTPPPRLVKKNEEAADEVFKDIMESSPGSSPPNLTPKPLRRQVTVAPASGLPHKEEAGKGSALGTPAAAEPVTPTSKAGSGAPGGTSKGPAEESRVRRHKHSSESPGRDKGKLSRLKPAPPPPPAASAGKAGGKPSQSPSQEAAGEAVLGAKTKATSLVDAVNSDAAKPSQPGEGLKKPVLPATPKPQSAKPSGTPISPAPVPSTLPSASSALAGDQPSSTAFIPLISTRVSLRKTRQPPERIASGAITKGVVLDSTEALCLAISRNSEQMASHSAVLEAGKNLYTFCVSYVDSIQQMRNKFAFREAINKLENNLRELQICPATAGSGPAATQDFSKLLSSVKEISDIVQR
Chain of CYP3A4 (P08684 whole entry, species assumed): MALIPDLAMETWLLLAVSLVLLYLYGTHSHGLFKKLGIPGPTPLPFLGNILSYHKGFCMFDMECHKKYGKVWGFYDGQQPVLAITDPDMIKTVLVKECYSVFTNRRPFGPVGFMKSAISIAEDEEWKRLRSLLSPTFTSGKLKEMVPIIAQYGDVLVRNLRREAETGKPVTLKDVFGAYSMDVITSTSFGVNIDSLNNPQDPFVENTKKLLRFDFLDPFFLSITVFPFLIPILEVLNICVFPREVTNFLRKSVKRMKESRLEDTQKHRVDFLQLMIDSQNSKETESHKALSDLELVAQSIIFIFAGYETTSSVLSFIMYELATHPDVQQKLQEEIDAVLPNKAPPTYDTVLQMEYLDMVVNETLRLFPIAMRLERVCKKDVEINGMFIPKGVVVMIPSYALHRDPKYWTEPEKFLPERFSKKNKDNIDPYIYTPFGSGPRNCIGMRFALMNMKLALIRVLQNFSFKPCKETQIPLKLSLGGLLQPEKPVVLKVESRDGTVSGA
Chain of hERG (Q12809 whole entry): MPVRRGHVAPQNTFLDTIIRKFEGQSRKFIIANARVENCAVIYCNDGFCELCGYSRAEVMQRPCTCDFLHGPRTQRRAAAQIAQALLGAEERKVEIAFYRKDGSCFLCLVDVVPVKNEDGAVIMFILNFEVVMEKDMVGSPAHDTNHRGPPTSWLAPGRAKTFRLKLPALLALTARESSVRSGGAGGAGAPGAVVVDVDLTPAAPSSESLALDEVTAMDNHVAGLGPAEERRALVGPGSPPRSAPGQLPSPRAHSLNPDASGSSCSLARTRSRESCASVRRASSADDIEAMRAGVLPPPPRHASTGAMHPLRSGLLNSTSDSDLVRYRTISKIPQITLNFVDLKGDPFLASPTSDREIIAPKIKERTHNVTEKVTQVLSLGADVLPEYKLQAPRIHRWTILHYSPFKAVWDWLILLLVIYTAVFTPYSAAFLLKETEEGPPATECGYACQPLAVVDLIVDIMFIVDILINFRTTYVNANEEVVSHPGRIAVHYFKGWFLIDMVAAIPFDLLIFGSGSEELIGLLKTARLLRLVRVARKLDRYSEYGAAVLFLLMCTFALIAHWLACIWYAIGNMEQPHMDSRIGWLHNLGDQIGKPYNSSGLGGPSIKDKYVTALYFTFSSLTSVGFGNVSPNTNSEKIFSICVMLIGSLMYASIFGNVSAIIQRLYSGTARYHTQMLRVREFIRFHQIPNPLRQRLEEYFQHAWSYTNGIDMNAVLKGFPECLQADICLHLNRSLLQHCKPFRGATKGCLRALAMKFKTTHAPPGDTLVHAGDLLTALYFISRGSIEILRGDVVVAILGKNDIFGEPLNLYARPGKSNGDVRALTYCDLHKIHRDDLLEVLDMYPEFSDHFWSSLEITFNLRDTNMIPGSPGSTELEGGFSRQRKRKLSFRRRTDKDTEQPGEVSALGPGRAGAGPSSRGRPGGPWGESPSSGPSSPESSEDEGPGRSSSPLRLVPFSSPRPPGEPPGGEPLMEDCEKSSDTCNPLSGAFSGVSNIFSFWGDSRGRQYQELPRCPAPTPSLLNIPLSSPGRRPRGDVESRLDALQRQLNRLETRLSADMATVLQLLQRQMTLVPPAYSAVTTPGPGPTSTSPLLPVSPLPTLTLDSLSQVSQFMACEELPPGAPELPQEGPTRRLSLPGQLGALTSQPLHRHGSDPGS
Chain of CYP2D6 (P10635 whole entry, species assumed): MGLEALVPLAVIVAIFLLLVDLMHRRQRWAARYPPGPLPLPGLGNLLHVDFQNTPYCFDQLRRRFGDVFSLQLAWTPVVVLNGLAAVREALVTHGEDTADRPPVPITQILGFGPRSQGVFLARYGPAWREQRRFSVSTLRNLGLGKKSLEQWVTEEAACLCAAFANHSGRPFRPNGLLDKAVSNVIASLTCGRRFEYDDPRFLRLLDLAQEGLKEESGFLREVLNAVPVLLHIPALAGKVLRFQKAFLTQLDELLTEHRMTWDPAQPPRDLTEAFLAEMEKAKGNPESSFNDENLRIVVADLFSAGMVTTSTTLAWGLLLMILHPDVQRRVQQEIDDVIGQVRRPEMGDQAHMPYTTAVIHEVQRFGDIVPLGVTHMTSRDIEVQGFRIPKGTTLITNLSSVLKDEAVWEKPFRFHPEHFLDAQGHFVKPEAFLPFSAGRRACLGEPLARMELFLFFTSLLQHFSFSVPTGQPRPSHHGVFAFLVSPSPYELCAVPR

In the case of `COCCN1CCN(Cc2ccc(NC(=O)c3ccc(C)c(C#Cc4cnc5cccnn45)c3)cc2C2CC2)CC1` [CD-1-002, N-[3-cyclopropyl-4-[[4-(2-methoxyethyl)piperazin-1-yl]methyl]phenyl]-3-(2-imidazo[1,2-b]pyridazin-3-ylethynyl)-4-methyl-benzamide], the IC50 – broadly, the concentration that gives 50% inhibition – at ABL1 (setting [1]) came to 0.686 nM; at ABL1 (setting [2]) it was 0.643 nM; at ABL1 (setting [3]), 0.601 nM; on ABL1 (setting [4]), 0.64 nM; against CYP2D6 it was 0.0248 mM; at CYP3A4 it was 0.0128 mM. Further, the IC50 at hERG (setting [5]) worked out at 81 nM; at hERG (setting [6]), 62 nM; on hERG (setting [7]), 100 nM; on hERG (setting [8]), 81 nM. The same molecule displayed an SI on hERG of 126.
In the case of `Cc1ccc(C(=O)Nc2ccc(CN3CCc4cn[nH]c4C3)c(Cl)c2)cc1C#Cc1cnc2cccnn12` [CD-1-051, N-[3-chloro-4-(1,4,5,7-tetrahydropyrazolo[3,4-c]pyridin-6-ylmethyl)phenyl]-3-(2-imidazo[1,2-b]pyridazin-3-ylethynyl)-4-methyl-benzamide], the concentration for half-maximal inhibition (IC50) on ABL1 (setting [9]) was found to be 11 nM; at ABL1 (setting [10]), 9.93 nM; at ABL1 (setting [11]) it was 8.87 nM; at ABL1 (setting [4]), 9.93 nM; against CYP2D6 it was 0.03 mM; against CYP3A4 it was 0.00557 mM. Further, the IC50 amounted to 5020 nM on hERG (setting [12]), 3840 nM at hERG (setting [13]), 6200 nM at hERG (setting [14]) and 5020 nM on hERG (setting [8]). Further, the SI on hERG amounted to 506. The selectivity ratio at 4 h on hERG came out at 506.
Consider `Cc1ccc(C(=O)Nc2ccc(CN3Cc4ccc(O)cc4C3)c(Cl)c2)cc1C#Cc1cnc2cccnn12` [CD-1-067, N-(3-chloro-4-((5-hydroxyisoindolin-2-yl)methyl)phenyl)-3-(imidazo [1,2-b]pyridazin-3-ylethynyl)-4-methylbenzamide], for which the IC50 at ABL1 (setting [9]) is greater than 30 nM; on ABL1 (setting [11]) it was greater than 30 nM; at ABL1 (setting [4]), greater than 30 nM; at CYP2D6, 0.00339 mM; against CYP3A4 it was 0.00461 mM. At hERG, this molecule displayed an SI of less than 26.
As to `Cc1cn(-c2cc(NC(=O)c3ccc(C)c(Nc4nccc(-c5cccnc5)n4)c3)cc(C(F)(F)F)c2)cn1` [Nilotinib, reference compound], the results for the IC50 on CYP2D6 and on CYP3A4 were greater than 0.1 mM and 0.00058 mM, respectively.
On to `Cc1ccc(C(=O)Nc2ccc(CN3CCN(CCO)CC3)c(Cl)c2)cc1C#Cc1cnc2cccnn12` [TK3-141, N-[3-chloro-4-[[4-(2-hydroxyethyl)piperazin-1-yl]methyl]phenyl]-3-(2-imidazo[1,2-b]pyridazin-3-ylethynyl)-4-methyl-benzamide], for which the IC50 amounted to 0.31 nM on ABL1 (setting [1]); 0.297 nM on ABL1 (setting [2]); 0.285 nM at ABL1 (setting [3]); 0.3 nM at ABL1 (setting [4]); 0.00102 mM against CYP2D6; 0.00801 mM at CYP3A4. In addition, the concentration for half-maximal inhibition (IC50) on hERG (setting [5]) is 345 nM; on hERG (setting [6]), 138 nM; at hERG (setting [7]), 552 nM; at hERG (setting [8]), 345 nM. For the same molecule, the SI on hERG was 1158.
On to `Cc1ccc(C(=O)Nc2ccc(CN3CCN(CCO)CC3)c(C3CC3)c2)cc1C#Cc1cnc2cccnn12` [TK3-144, N-[3-cyclopropyl-4-[[4-(2-hydroxyethyl)piperazin-1-yl]methyl]phenyl]-3-(2-imidazo[1,2-b]pyridazin-3-ylethynyl)-4-methyl-benzamide], for which the IC50 on ABL1 (setting [1]) was 0.413 nM; on ABL1 (setting [2]) it was 0.392 nM; at ABL1 (setting [3]), 0.371 nM; on ABL1 (setting [4]) it was 0.39 nM; on CYP2D6 it was 0.00199 mM; against CYP3A4, 0.0118 mM. Besides, the half-inhibitory concentration (IC50) at hERG (setting [5]) turned out to be 103 nM; on hERG (setting [6]), 105 nM; at hERG (setting [7]), 102 nM; on hERG (setting [8]) it was 103 nM. Further, the SI at hERG is reported as 263.
Regarding `Cc1ccc(C(=O)Nc2ccc(CN3Cc4cn[nH]c4C3)c(Cl)c2)cc1C#Cc1cnc2cccnn12` [ZD-3-167, N-[3-chloro-4-(4,6-dihydro-1H-pyrrolo[3,4-c]pyrazol-5-ylmethyl)phenyl]-3-(2-imidazo[1,2-b]pyridazin-3-ylethynyl)-4-methyl-benzamide], the IC50 is 11.1 nM on ABL1 (setting [9]); 10.6 nM on ABL1 (setting [10]); 10.1 nM at ABL1 (setting [11]); 10.6 nM at ABL1 (setting [4]); 0.0137 mM against CYP2D6; 0.00728 mM at CYP3A4. Moreover, the IC50 on hERG (setting [12]) is 10200 nM; on hERG (setting [13]) it was greater than 10000 nM; on hERG (setting [14]), greater than 10000 nM; at hERG (setting [8]), greater than 10000 nM. Besides, the SI on hERG is on record as greater than 943. The selectivity ratio at 4 h on hERG turned out to be 963.
